Assay results reported in patent publication US11008355B2, “Crystal of 3'-sialyllactose sodium salt n-hydrate, and process for producing same” (KYOWA HAKKO BIO CO., LTD., priority 2016, dated 2021).
Like-named read-outs stand apart in the source and are kept apart here.

Legend:
[1] = 50° C., relative humidity of 50%, HPLC, wt %
Experimental: Storage conditions: 50° C., relative humidity of 50% (adjusted with saturated sodium bromide solution)
Measurement method: About 5 g of a sample was weighed with a precision balance, the sample was packed in a glass container, and the amount of impurities (glucose, lactose, sialic acid) after heating was evaluated by HPLC (“%” in Table 5 represents “wt %”).

[2] = 30° C., relative humidity of 80%; for Change in weight with lapse of time (in words): up to 8 hours
Experimental: Storage conditions: 30° C., relative humidity of 80% (apparatus: THE051FA, manufactured by Advantec Toyo Kaisha Ltd.)
Measurement method: After about 100 mg of a sample was weighed with a precision balance, the sample was packed in a glass container and stored under the above-mentioned conditions. Thereafter, the sample was weighed again, and the weight change ratio was calculated.
Incidentally, the weight of the sample at each elapsed time was measured by assuming the weight of each sample at the start of the test to be 100%.

[3] = pH of aqueous solution of the crystal; type: physicochemical; details: aqueous solution at 50 g/L as a crystal of 3SL sodium salt 8.0-hydrate
Experimental: As for the pH, an aqueous solution at 50 g/L as a crystal of 3SL sodium salt 8.0-hydrate was measured. The melting point was measured using Melting Point M-565 (manufactured by BUCHI Corporation) under a condition of 50° C. to 200° C. and 0.5° C./min according to the instruction book.

| Glucose (impurity amount) ([1]; elapsed days 0) | Lactose (impurity amount) ([1]; elapsed days 0) | Sialic acid (impurity amount) ([1]; elapsed days 0) | Glucose (impurity amount) ([1]; elapsed days 2) | Lactose (impurity amount) ([1]; elapsed days 2) | Sialic acid (impurity amount) ([1]; elapsed days 2) | Glucose (impurity amount) ([1]; elapsed days 4) | Lactose (impurity amount) ([1]; elapsed days 4) | Sialic acid (impurity amount) ([1]; elapsed days 4) | Change in weight with lapse of time (in words) [2] | Weight of sample (weight at start of test = 100%) ([2]; elapsed time 0 hours) | Weight of sample (weight at start of test = 100%) ([2]; elapsed time 0.5 hours) | Weight of sample (weight at start of test = 100%) ([2]; elapsed time 2.5 hours) | Weight of sample (weight at start of test = 100%) ([2]; elapsed time 8 hours) | pH [3] | Structure (SMILES) |
| --- | --- | --- | --- | --- | --- | --- | --- | --- | --- | --- | --- | --- | --- | --- | --- |
| 0.11% | 0.02% | 0.14% | 0.14% | 0.03% | 0.21% | 0.16% | 0.07% | 0.26% | – | – | – | – | – | – | CC(=O)N[C@H]1[C@H]([C@H](O)[C@H](O)CO)O[C@@](O[C@H]2[C@@H](O)[C@@H](CO)O[C@@H](O[C@H]3[C@H](O)[C@@H](O)C(O)O[C@@H]3CO)[C@@H]2O)(C(=O)[O-])C[C@@H]1O.[Na+] (some centres unmarked) [Freeze-dried product, amorphous 3SL sodium, reference compound] |
| – | – | – | – | – | – | – | – | – | increase in weight | 100.0% | 123.1% | 130.5% | 130.4% | – | CC(=O)N[C@H]1[C@H]([C@H](O)[C@H](O)CO)O[C@@](O[C@H]2[C@@H](O)[C@@H](CO)O[C@@H](O[C@H]3[C@H](O)[C@@H](O)C(O)O[C@@H]3CO)[C@@H]2O)(C(=O)[O-])C[C@@H]1O.[Na+] (some centres unmarked) [amorphous, 3SL sodium reagent, reference compound] |
| 0.03% | 0.01% | 0.08% | 0.04% | 0.01% | 0.10% | 0.04% | 0.02% | 0.09% | almost no change in weight | 100.0% | 100.2% | 99.9% | 99.9% | 6.00 | CC(=O)NC1C(O)CC(OC2C(O)C(CO)OC(OC3C(CO)OC(O)C(O)C3O)C2O)(C(=O)[O-])OC1C(O)C(O)CO.O.O.O.O.O.O.O.O.[Na+] (centres unmarked) [Example 2, 3SL sodium salt 8.0-hydrate] |
